MIC and Activity data for three compounds are collected here from ChEMBL document CHEMBL2203141, “Heterologously expressed β-hydroxyl fatty acids from a metagenomic library of a marine sponge” (2012).

Experiment [1] relates to Aspergillus nidulans. Description: Antifungal activity against Aspergillus nidulans by serial two-fold dilution microtiter plate method. Type of experiment: functional.
The nature of experiment [2]: Antifungal activity against Penicillium commune by serial two-fold dilution microtiter plate method. Type of experiment: functional.
In experiment [3] the test system is Wickerhamomyces anomalus. Description: Antifungal activity against Pichia anomala by serial two-fold dilution microtiter plate method. The format is functional. The conditions noted are these: Hansenula anomala.
For experiment [4], the system named is Penicillium roqueforti. As to the kind of experiment: Antifungal activity against Penicillium roqueforti by serial two-fold dilution microtiter plate method. Type of experiment: functional.
Experiment [5] relates to Kluyveromyces marxianus. Description: Antifungal activity against Kluyveromyces marxianus by serial two-fold dilution microtiter plate method. Type of experiment: functional.
A short description of experiment [6]: Antifungal activity against […] mucilaginosa by serial two-fold dilution microtiter plate method. The format is functional.
In experiment [7] the test system is Aspergillus fumigatus. Description: Antifungal activity against Aspergillus fumigatus by serial two-fold dilution microtiter plate method. Type of experiment: functional.
Experiment [8] deals with Escherichia coli. As to the kind of experiment: Antibacterial activity against Escherichia coli by broth dilution method. The format is functional, organism-based. (In general: Dilution methods test growth across graded concentrations, often in twofold steps.)
Experiment [9] has as its system Bacillus cereus. As to the kind of experiment: Antibacterial activity against Bacillus cereus by broth dilution method. Type of experiment: functional.
The subject of experiment [10] is Staphylococcus aureus. As to the kind of experiment: Antibacterial activity against methicillin-resistant Staphylococcus aureus by broth dilution method. The format is functional, organism-based.
Experiment [11] relates to Candida albicans. As to the kind of experiment: Antifungal activity against Candida albicans by broth dilution. Type of experiment: functional.

SMILES strings stand for the structures. In brackets after ≈: the same amount, converted by molar mass. Activity calls are given as the source filed them. The rule behind the calls is not given here.

Regarding `CCCCCCCCC[C@@H](O)CC(=O)O`, the MIC in experiment [1], in experiment [2], in experiment [3], in [4], in [5] and in [6] was 10 µg/mL (≈ 46.2 µM) throughout. The MIC (usually the least concentration at which growth counts as inhibited) in [7] is 10 µg/mL (≈ 46.2 µM).
`CCCCCCCCCCC[C@@H](O)CC(=O)O`: the MIC in experiment [1], in experiment [2], in [3], in experiment [4], in experiment [5] and in [6] was 10 µg/mL (≈ 40.9 µM) throughout. The MIC in experiment [7] amounted to 10 µg/mL (≈ 40.9 µM).
Turning to `CCCCCCCCCCCCC[C@@H](O)CC(=O)O`, the outcome in [8] and in [10] was inactive. The MIC turned out to be 6.25 µg/mL (≈ 22.9 µM) in experiment [9] and 12.5 µg/mL (≈ 45.9 µM) in experiment [11].
